Data taken from ChEMBL document CHEMBL1135267 (Bioorg Med Chem Lett, 2002).

Target: T1, Aromatase (Homo sapiens, UniProt P11511)
T1 sequence (P11511 whole entry): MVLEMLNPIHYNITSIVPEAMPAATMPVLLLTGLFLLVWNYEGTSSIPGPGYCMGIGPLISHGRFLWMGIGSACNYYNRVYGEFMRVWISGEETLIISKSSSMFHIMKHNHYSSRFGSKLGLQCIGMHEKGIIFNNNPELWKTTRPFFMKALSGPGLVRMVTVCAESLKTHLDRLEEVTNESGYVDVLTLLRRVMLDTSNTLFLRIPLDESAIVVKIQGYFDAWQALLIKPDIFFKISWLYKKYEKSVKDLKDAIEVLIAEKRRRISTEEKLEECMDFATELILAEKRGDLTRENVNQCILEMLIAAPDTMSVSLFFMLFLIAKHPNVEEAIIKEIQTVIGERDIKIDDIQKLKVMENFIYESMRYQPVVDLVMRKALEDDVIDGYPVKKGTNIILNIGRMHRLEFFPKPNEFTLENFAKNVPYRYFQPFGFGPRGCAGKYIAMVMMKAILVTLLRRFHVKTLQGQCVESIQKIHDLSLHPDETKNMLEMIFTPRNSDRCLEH

Compound	IC50
O=C1/C(=C/c2ccncc2)C(c2ccccc2)Oc2ccccc21 (centres undefined)	0.8 µM
COc1ccc2c(c1)OC(c1ccccc1)/C(=C\c1ccncc1)C2=O (centres undefined)	0.62 µM
O=C1/C(=C\c2ccncc2)C(c2ccccc2)Oc2ccccc21 (mixture of isomers)	3.3 µM
COc1ccc2c(c1)OC(c1ccccc1)/C(=C/c1ccncc1)C2=O (mixture of isomers)	1.6 µM
